Reference: patent US10196657B2, “Methods of producing 7-carbon chemicals via methyl-ester shielded carbon chain elongation” (INVISTA North America S.á r.l., priority 2012, dated 2019)

Tests used:
Type in all cases: biochemical
[1] = ω-transaminase activity assay, reverse direction (7-aminoheptanoate to pimelate semialdehyde); conditions: cell free extract, 10 mM 7-aminoheptanoate, 10 mM pyruvate, 25° C., 4 h; against empty vector control; FIG. 15
Description: (§1) A sequence encoding an N-terminal His-tag was added to the genes from Chromobacterium violaceum, Pseudomonas syringae, Rhodobacter sphaeroides, and Vibrio Fluvialis encoding the ω-transaminases of SEQ ID NOs: 8, 10, 11 and 13, respectively (see FIGS. 7F and 7G) such that N-terminal HIS tagged ω-transaminases could be produced. Each of the resulting modified genes was cloned into a pET21a expression vector under control of the T7 promoter and each expression vector was transformed into a BL21[DE3] E. coli host. The resulting recombinant E. coli strains were cultivated at 37° C. in a 250 mL shake flask culture containing 50 mL LB media and antibiotic selection pressure, with shaking at 230 rpm. Each culture was induced overnight at 16° C. using 1 mM IPTG.
(§2) The pellet from each induced shake flask culture was harvested via centrifugation. Each pellet was resuspended and lysed via sonication. The cell debris was separated from the supernatant via centrifugation and the cell free extract was used immediately in enzyme activity assays.
Enzyme activity assays in the reverse direction (i.e., 7-aminoheptanoate to pimelate semialdehyde) were performed in a buffer composed of a final concentration of 50 mM HEPES buffer (pH=7.5), 10 mM 7-aminoheptanoate, 10 mM pyruvate and 100 μM pyridoxyl 5′ phosphate. […] The formation of L-alanine from pyruvate was quantified via RP-HPLC.

[2] = ω-transaminase activity assay, forward direction (pimelate semialdehyde to 7-aminoheptanoate)
Description: as §1, §2
Enzyme activity in the forward direction (i.e., pimelate semialdehyde to 7-aminoheptanoate) was confirmed for the transaminases of SEQ ID NO 10, SEQ ID NO 11 and SEQ ID NO 13. […] The formation of pyruvate was quantified via RP-HPLC.

[3] = ω-transaminase activity assay, 7-aminoheptanol to 7-oxoheptanol
Description: A nucleotide sequence encoding an N-terminal His-tag was added to the Chromobacterium violaceum, Pseudomonas syringae and Rhodobacter sphaeroides genes encoding the ω-transaminases of SEQ ID NOs: 8, 10 and 11, respectively (see FIGS. 7F and 7G) such that N-terminal HIS tagged ω-transaminases could be produced. The modified genes were cloned into a pET21a expression vector under the T7 promoter. Each expression vector was transformed into a BL21[DE3] E. coli host. Each resulting recombinant E. coli strain were cultivated at 37° C. in a 250 mL shake flask culture containing 50 mL LB media and antibiotic selection pressure, with shaking at 230 rpm. Each culture was induced overnight at 16° C. using 1 mM IPTG.
as §2
Enzyme activity assays in the reverse direction (i.e., 7-aminoheptanol to 7-oxoheptanol) were performed in a buffer composed of a final concentration of 50 mM HEPES buffer (pH=7.5), 10 mM 7-aminoheptanol, 10 mM pyruvate, and 100 μM pyridoxyl 5′ phosphate. […] The formation of L-alanine was quantified via RP-HPLC.

Substance: SEQ ID NO 11: Rhodobacter sphaeroides ω-transaminase, Genbank Accession No. ABA81135.1
- acceptance of 7-aminoheptanoate as substrate (formation of L-alanine from pyruvate, RP-HPLC) [1]: accepted 7-aminoheptanote as substrate
- acceptance of pimelate semialdehyde as substrate (formation of pyruvate from L-alanine, RP-HPLC) ([2]; cell free extract, 10 mM pimelate semialdehyde, 10 mM L-alanine, 25° C., 4 h, against empty vector control, FIG. 16): accepted pimelate semialdehyde as substrate
- acceptance of pimelate semialdehyde as substrate, synthesizing 7-aminoheptanoate (conclusion from confirmed reversibility) ([2]; concluded from reversibility of the ω-transaminase activity): accepted pimelate semialdehyde as substrate
- acceptance of 7-aminoheptanol as substrate (formation of L-alanine, RP-HPLC) ([3]; cell free extract, 10 mM 7-aminoheptanol, 10 mM pyruvate, 25° C., 4 h, against empty vector control, FIG. 19): accepted 7-aminoheptanol as substrate
- acceptance of 7-oxoheptanol as substrate, forming 7-aminoheptanol (concluded from reversibility) ([3]; concluded from reversibility of the ω-transaminase activity (Example 2)): accept 7-oxoheptanol as substrate
